Common to all, as to format: cell-based
What all share (settings): 72 h; human CD4+ T cells under TH17-polarizing conditions, 3 days, supernatant ELISA
For orientation: An ELISA detects its analyte on a solid surface through an enzyme-linked reagent.

Experiment [1] relates to IL-21. The experiment is described as follows: Human TH17 Cytokine Inhibition as measured by ELISA (IL-21).
Experiment [2] has as its system IL-17F. Put plainly: Human TH17 Cytokine Inhibition as measured by ELISA (IL-17F). An outline of the steps:
(§1)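 Human CD4+ T cells from healthy-donor PBMCs were activated with plate-bound anti-CD3 and soluble anti-CD28 (1 ug/ml each) and TH17-polarized with IL-6, TGF-β1, IL-23 and IL-1β for 3 days in serum-free medium, with compound at varying concentrations (0.1% DMSO). Supernatant IL-17A/IL-17F quantified by ELISA, absorbance 450 nm.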

For experiment [3], the system named is IL-17A. Put plainly: Human TH17 Cytokine Inhibition as measured by ELISA (IL-17A). The method, boiled down:
as §1

`O=C(CCc1ccccc1)N1CCC(Cn2ccc3cc(-c4cn[nH]c4C(F)(F)F)ccc32)CC1` [Example 117, 3-phenyl-1-(4-((5-(5-(trifluoromethyl)-1H-pyrazol-4-yl)-1H-indol-1-yl)methyl)piperidin-1-yl)propan-1-one]: the IC50 in experiment [1], in experiment [2] and in experiment [3] was less than 10 µM throughout.

Take `O=C(CCc1ccccc1)N1CCC(Cn2ccc3cc(-c4cnn(CCO)c4)ccc32)CC1` [Example 118, 1-(4-((5-(1-(2-hydroxyethyl)-1H-pyrazol-4-yl)-1H-indol-1-yl)methyl)piperidin-1-yl)-3-phenylpropan-1-one]: the IC50 in experiment [1], in experiment [2] and in experiment [3] was less than 10 µM throughout.

As to `NC(=O)Cn1cc(-c2ccc3c(ccn3CC3CCN(C(=O)CCc4ccccc4)CC3)c2)cn1` [Example 119, 2-(4-(1-((1-(3-phenylpropanoyl)piperidin-4-yl)methyl)-1H-indol-5-yl)-1H-pyrazol-1-yl)acetamide], the IC50 (commonly the concentration that inhibits the measured activity by half) is less than 10 µM in experiment [1], more than 10 µM in experiment [2] and more than 10 µM in experiment [3].

Turning to `Cc1ncc(-c2ccc3c(ccn3CC3CCN(C(=O)CCc4ccccc4)CC3)c2)s1` [Example 120, 1-(4-((5-(2-methylthiazol-5-yl)-1H-indol-1-yl)methyl)piperidin-1-yl)-3-phenylpropan-1-one], the IC50 in experiment [1], in experiment [2] and in experiment [3] was less than 10 µM throughout.

On to `O=C(CCc1ccccc1)N1CCC(Cn2ccc3cc(-c4cnccn4)ccc32)CC1` [Example 121], for which the IC50 in experiment [1], in experiment [2] and in experiment [3] was less than 10 µM throughout.

Take `Cc1ccc(-c2ccc3c(ccn3CC3CCN(C(=O)CCc4ccccc4)CC3)c2)nc1` [Example 122]: the IC50 in experiment [1], in experiment [2] and in experiment [3] was less than 10 µM each time.

In the case of `Cc1ccncc1-c1ccc2c(ccn2CC2CCN(C(=O)CCc3ccccc3)CC2)c1` [Example 123], the IC50 in experiment [1], in experiment [2] and in experiment [3] was less than 10 µM throughout.

As to `O=C(CCc1ccccc1)N1CCC(Cn2ccc3cc(-c4cncs4)ccc32)CC1` [Example 124], the IC50 in experiment [1], in experiment [2] and in experiment [3] was less than 10 µM throughout.

As to `Cn1cc(-c2ccc3c(ccn3CC3CCN(C(=O)CCc4ccccc4)CC3)c2)cn1` [Example 125], the IC50 in experiment [1], in experiment [2] and in experiment [3] was less than 10 µM in each case.

Turning to `Cc1cc2cc(-c3cn[nH]c3)ccc2n1CC1CCN(C(=O)CCc2ccccc2)CC1` [Example 132, 1-(4-((2-methyl-5-(1H-pyrazol-4-yl)-1H-indol-1-yl)methyl)piperidin-1-yl)-3-phenylpropan-1-one], the IC50 in experiment [1], in experiment [2] and in experiment [3] was less than 10 µM each time.

In the case of `Cc1cc2cc(-c3cn[nH]c3)ccc2n1CC1CCN(C(=O)Cc2ccccc2)CC1` [Example 133, 1-(4-((2-methyl-5-(1H-pyrazol-4-yl)-1H-indol-1-yl)methyl)piperidin-1-yl)-2-phenylethanone], the IC50 in experiment [1], in experiment [2] and in experiment [3] was less than 10 µM in each case.

For the origin of these results see patent US20150252022A1, “RETINOIC ACID RECEPTOR-RELATED ORPHAN RECEPTOR MODULATORS AND USES THEREOF” (INNOV17 LLC, priority 2014, published 2015).
